Reference: patent US6265423A, “Aromatic polycyclic retinoid-type derivatives, method for preparing same, and use thereof for making pharmaceutical and cosmetic compositions” (priority 1996, dated 2001)
Read-outs that look alike come from different tables or passages of the source.

Experiments:
Format in all cases: cell-based
[1] = tested on: human mammary tumoral lineage T-47D; assay: Clonogenic test (soft agar), growth of cellular colonies; conditions: for activity at 0.1 µM / activity at 0.01 µM / activity at 0.001 µM / activity at 0.0001 µM: 504 h, read-out: mean number of cellular colonies in relation to control; for effect on growth of cellular colonies (in words): soft agar
Summary of the method: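 Colony counts (clones over 100 μm², MTT-stained for at least 3 h) are expressed as a percentage of the untreated control. T-47D cells grew anchorage-independently between a 0.5% agar base and a 0.3% agar top layer. Cultures were incubated for 21 days after treatment at 37 °C with 5% CO2.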

RARβ-ERcassette = assay: Transactivation, chimerical receptor RARβ-ERcassette (HeLa); conditions: TTNPB 10^-8 M = 100
Summary of the method: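 Read-out: ERE-driven luciferase in HeLa cells, normalised to a co-transfected CMV-β-galactosidase control. Receptor is RAR with its C domain swapped for the oestrogen receptor DNA-binding domain, keeping AF-1/AF-2 cooperation. Effector exposure 16 h, beginning 24 h post-transfection.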

[2] = tested on: RAR-ERcassettes (RARα, RARβ, RARγ); assay: Chimerical receptors RAR-ERcassettes, overall profile
Source text: (§1) The HeLa cells are co-transfected by a plasmid which codes for a retinoic receptor in which the C domain of bonding to the DNA is substituted by that of the receptor to RE oestrogens, and a plasmid which places the expression of the luciferase under the control of an ERE (Element of Response to Oestrogens). The expressed chimerical receptors are designated as RARα-ERcassette, RARβ-ERcassette, RARγ-ERcassette and RXRα-ERcassette. The A, B, D, E and F regions of the natural receptor are preserved as well as the transcriptional co-operation between the activation domains AF-1 and AF-2. These transitory transfection experiments follow the method of co-precipitation to calcium phosphate. The HeLa cells are co-transfected by […] of plasmid coding for the chimerical receptor, […] of reporter plasmid and […] of expression vector CMV-β-galactosidase used as an internal control of transfection. 24 hours after the transfection, the cells are incubated for 16 hours with the different effectors.
(§2) In this type of chimerical receptor, the C domain of bonding to the DNA of RAR is substituted by that of the receptor to the RE oestrogens. The protein obtained is close to the natural RAR receptor and preserves the transcriptional properties of the AF-1 and AF-2 domains. It modulates the transcription by means of an ERE. This RAR-ERcassette model allows one to observe a transcriptional response to a more physiological ligand.

[3] = tested on: response element RARE of RARβ gene, endogenic retinoic receptors, HRLN lineage; assay: HRLN transactivation (RARE-luciferase, stably transfected HeLa); conditions: for EC50 / Emax: Homo sapiens, HeLa; for EC50: concentrations from 1 nM to 1 μM; for Emax: read-out: HRLN transactivation, E max
Procedure: MCF-7 cells and HeLa are cultivated in DMFM with phenol red to which 5% foetal calf serum is added. The T47-D cells are cultivated in RPMI to which 10% foetal calf serum is added. The experimental tests are carried out in DMEM without phenol red to which foetal calf serum treated with dextran carbon is added at 3%. […] The experiments using the different retinoids are carried out sheltered from the light so as to avoid any isomerisation.
Certain properties of the retinoids have been determined using more developed cellular models. These models consist of cellular lineages transfected in a stable fashion by recombinant plasmids which place the expression of the gene of the luciferase under the control of different nuclear response elements. […] The tests carried out in duplicate are described below for each of these models.
The cellular lineages HRLN and HRL+N allow one to study the activation of an RARE by endogenic receptors using ligands at physiological concentrations. These lineages derive from HeLa cells transfected in a stable fashion by a reporter gene which places the expression of the gene of the luciferase under the control of a nuclear response element RARE (RARE3 -tk-Luc). The HeLa cells express all the known receptors of the retinoic acid (RARα,β,γ and RXRα,β,γ) with a predominance of RARα and RXRα. The response element RARE used for the HRLN cells corresponds to the sequence of the natural gene of the RARβ receptor (GGTTCAnnnnnAGTTCA). The HRL+N cells comprise the sequence GAGTGAnnnnnCGGTGA.
This lineage comprises the response element RARE of the natural gene of the RARβ receptor which controls the expression of the gene of the luciferase.

RARγ-ERcassette = assay: Transactivation, chimerical receptor RARγ-ERcassette (HeLa); conditions: TTNPB 10^-8 M = 100
Source text: as §1, §2

Gal4-RARβ = assay: Transactivation, chimerical receptor Gal4-RARβ (transitory transfection of HeLa); conditions: 100% = TTNPB 10^-8 M
[4] = Homo sapiens, T47D, T-47D, 10^-8 M, 21 days, control = 100%
[5] = Homo sapiens, T47D, T-47D, 10^-9 M, 21 days, control = 100%
[6] = Homo sapiens, T47D, T-47D, 10^-10 M, 21 days, control = 100%

SMILES | activity at 0.01 µM [1, 4] [%] | activity at 0.001 µM [1, 5] [%] | activity at 0.0001 µM [1, 6] [%] | effect on growth of cellular colonies (in words) ([1]; T-47D) | RAR-ERcassette RARβ transactivation (RARβ-ERcassette; 10^-6 M) [%] | RAR-ERcassette RARβ transactivation (RARβ-ERcassette; 10^-7 M) [%] | RAR-ERcassette RARβ transactivation (RARβ-ERcassette; 10^-8 M) [%] | RAR-ERcassette RARβ transactivation (RARβ-ERcassette; 10^-9 M) [%] | RAR-ERcassette profile (in words) [2] | HRLN transactivation (in words) [3] | RAR-ERcassette RARγ transactivation (RARγ-ERcassette; 10^-6 M) [%] | RAR-ERcassette RARγ transactivation (RARγ-ERcassette; 10^-7 M) [%] | RAR-ERcassette RARγ transactivation (RARγ-ERcassette; 10^-8 M) [%] | RAR-ERcassette RARγ transactivation (RARγ-ERcassette; 10^-9 M) [%] | EC50 [3] [nM] | Emax [3] [%] | further results
CC(C=C/C=C(C)\C=C\C1=C(C)CCCC1(C)C)=CC(=O)O [CB13407, 9-cis retinoic acid, reference compound] | 45.6 | 52.8 | 54.9 | significant and dose dependent inhibiting activity | 369 | 212 | 94 | 16 | induce an over-expression of luciferase in comparison to the induction brought about by a synthetic compound (TTNPB) | induce a dose-dependent activation | 157 | 108 | 56 | 11 | – | – | activity at 0.1 µM ([1]; Homo sapiens, T47D, T-47D, 10^-7 M, 21 days, control = 100%): 6.7%
C/C(=C\c1cc2c(cc1C)C(C)(C)CCC2(C)C)c1ccc(C(=O)O)cc1 [CB71802] | 45.2 ± 4.8 | 92.5 ± 9.6 | 104 ± 2.3 | – | – | – | – | – | – | – | – | – | – | – | 31.4 ± 16.9 | 76 | –
C/C(=C\c1ccc2c(c1)C(C)(C)CCC2(C)C)c1ccc(C(=O)Nc2nnn[nH]2)cc1 [CB73364] | 10.3 ± 2.8 | 54.9 ± 5.8 | 99.3 ± 7.8 | inhibit the growth of the cellular colonies | 118 | – | – | – | – | – | 78 | – | – | – | 33 | 89 | inhibition at 0.01 µM ([1]; Homo sapiens, T47D, T-47D, 10^-8 M, read-out: inhibition of colony growth): 69.7%
CC1=C(/C=C/C(C)=C/C=C/C(C)=C/C(=O)O)C(C)(C)CCC1 [CB16178, all-trans retinoic acid, reference compound] | – | – | – | – | 475 | 270 | 128 | 93 | induce an over-expression of luciferase in comparison to the induction brought about by a synthetic compound (TTNPB) | induce a dose-dependent activation | 189 | 122 | 114 | 86 | – | – | GAL4-RAR RARβ transactivation (Gal4-RARβ; 10^-6 M): 92%; GAL4-RAR RARβ transactivation (Gal4-RARβ; 10^-7 M): 93%; GAL4-RAR RARβ transactivation (Gal4-RARβ; 10^-8 M): 104%
C/C(=C\c1ccc(C(=O)O)cc1)c1ccc2c(c1)C(C)(C)CCC2(C)C [TTNPB, reference compound] | – | – | – | more active than the product CB36493 of the cis series (Z) | – | – | – | – | – | – | – | – | – | 66 | – | – | activity at 0.0001 µM ([1]; Homo sapiens, T47D): 34.1%; activity at 0.001 µM ([1]; Homo sapiens, T47D): 5.5%; activity at 0.01 µM ([1]; Homo sapiens, T47D): 2.1%; activity at 0.1 µM ([1]; Homo sapiens, T47D): 1.3%; inhibition at 0.0001 µM ([1]; Homo sapiens, T47D, read-out: inhibition of colony growth): 66%; effect on growth of cellular colonies (in words) ([1]; T-47D, listed as CB01570): inhibits very strongly, in a significant and dose dependent manner the growth of cellular colonies
